In patent US7834040B2, “Isoxazolic derivative to relieve neuropathic pain” (Zambon S.p.A., priority 2004, dated 2010):
“Also recorded” adds a separate entry of the source.

How the values were obtained:
neuropathic pain = details: Rashid et al., J. Pharmacol. Exp. Ther. 303:226-231, 2002; cited from earlier work
[1] = test system: neuropathic pain caused by chronic constrictive lesion of the sciatic nerve of the rat's hind leg (CCI); assay: Mechanical allodinia in the CCI model of neuropathic pain (chronic constrictive lesion of the sciatic nerve); type: in vivo, male rats of Wistar strain
Text: The effectiveness of the compound of formula (I) has been tested experimentally in two different models of neuropathic pain caused by chronic constrictive lesion of the sciatic nerve of the rat's hind leg (CCI) and by the ligament of the rat's spinal nerve (SNL), according to the procedure reported in the following experimental part. To a group of male rats of Wistar strain a peripheral neuropathy has been induced by means of ligature of the sciatic nerve (CCI) according to the Bennet and Xie model (Pain 33:87-107, 1988). In order to evaluate the neuropathic pain, the development of mechanical allodinia was measured by calculating the average of the pain perception thresholds in the animals' legs in response to mechanical stimuli, following the method described by Chaplan et al. (Journal Neurosci. Method. 53:55-63, […]). In the first group of experiments the measurements have been carried out before and 14 days after the ligature of the […] (CCI). In the second group of experiments the same parameter has been similarly evaluated before and 14 days after the ligature of the spinal nerve (SNL). In both groups, the mechanical allodinia threshold has been measured before (pre-treatment) and 0.5, 1, 2, 4 and 6 hours after treatment by oral route with the compound of formula (I) at doses of 3, 30 and 300 mg/kg.

[2] = test system: neuropathic pain caused by the ligament of the rat's spinal nerve (SNL); assay: Mechanical allodinia in the SNL model of neuropathic pain (ligature of the spinal nerve); type: in vivo, male rats of Wistar strain
Text: The effectiveness of the compound of formula (I) has been tested experimentally in two different models of neuropathic pain caused by chronic constrictive lesion of the sciatic nerve of the rat's hind leg (CCI) and by the ligament of the rat's spinal nerve (SNL), according to the procedure reported in the following experimental part. To a second group of male rats of Wistar strain a peripheral neuropathy has been induced by means of ligature of the spinal nerve according to the modified method described by Kim and Chung and which is constituted by the ligature of two (L5-L6) of the three spinal nerves which form the sciatic nerve (Pain 50:355-363, 1992). In order to evaluate the neuropathic pain, the development of mechanical allodinia was measured by calculating the average of the pain perception thresholds in the animals' legs in response to mechanical stimuli, following the method described by Chaplan et al. (Journal Neurosci. Method. 53:55-63, […]). In the first group of experiments the measurements have been carried out before and 14 days after the ligature of the […] (CCI). In the second group of experiments the same parameter has been similarly evaluated before and 14 days after the ligature of the spinal nerve (SNL). In both groups, the mechanical allodinia threshold has been measured before (pre-treatment) and 0.5, 1, 2, 4 and 6 hours after treatment by oral route with the compound of formula (I) at doses of 3, 30 and 300 mg/kg.

[3] = oral route, 3, 30 and 300 mg/kg, 0.5-6 hours after treatment, 14 days after ligature

In the case of `NC(=O)CN1CCCC1=O` [piracetam], the “analgesic effect with respect to the neuropathic pain” value (from here on “analgesic effect”) (neuropathic pain) is given as “do not produce significant analgesic effects”.

In the case of `CC[C@H](C(N)=O)N1CCCC1=O` [levitiracetam], the “analgesic effect” value (neuropathic pain) is listed as “do not produce significant analgesic effects”.

In the case of `NC(=O)CN1CC(O)CC1=O` (stereo not shown) [oxiracetam], the “analgesic effect” value (neuropathic pain) is listed as “do not produce significant analgesic effects”.

For `Cc1cc(C(=O)NCCCC(=O)O)on1` [compound of formula (I)], the “dose from which the antiallodinic effect is statistically significative” value ([1]; oral route) was no less than 3 mg/kg, the “time after treatment up to which the antiallodinic effect is detected” value ([1]; oral route) was “up to 6 hours” and the “mechanical allodinia (pain perception threshold to mechanical stimuli)” value [1, 3] was “reduced in a dose-depending way the mechanical allodinia; also recorded: marked reduction in the neuropathic allodinia”. For the same compound, the “dose from which the antiallodinic effect is statistically significative” value ([2]; oral route) was no less than 3 mg/kg, the “time after treatment up to which the antiallodinic effect is detected” value ([2]; oral route) was “up to 6 hours” and the “mechanical allodinia (pain perception threshold to mechanical stimuli)” value [2, 3] was “reduced in a dose-depending way the mechanical allodinia; also recorded: marked reduction in the neuropathic allodinia”.

In the case of `Cc1cccc(C)c1NC(=O)CN1CCCC1=O` [nefiracetam], the “analgesic effect” value (neuropathic pain) is listed as “powerful analgesic effect”.
